Results: EPA's ToxValDB 9.5 (doi:10.2903/j.efsa.2017.4912)
≈ marks a conversion by molar mass, not a printed value.

Key:
Rattus norvegicus = settings: for NOAEL: body weight
Oncorhynchus mykiss = settings: acute; duration: 96 hours; mortality
Tagia sp. = settings: chronic/long-term; duration: 56 days
Apis mellifera = settings: acute, duration: 48 hours, mortality
Folsomia candida = settings: chronic/long-term; duration: 28 days
Anas platyrhynchos = settings: reproductive; duration: 21 weeks; M; reproduction
Cyprinodon variegatus = settings: chronic/long-term; duration: 28 days; other
Typhlodromus pyri = test: LR50; higher = less toxic; settings: not reported; duration: 7 days; mortality

SMILES	NOAEL (Rattus norvegicus; chronic, duration: 2 years) [mg/kg-day]	NOAEL (Oryctolagus sp.; developmental, development) [mg/kg-day]	LC50 (Oncorhynchus mykiss) [µg/mL]	LD50 (Rattus norvegicus; acute, oral, mortality) [mg/kg-day]	NOAEL (Rattus norvegicus; reproduction developmental) [mg/kg-day]	NOAEL (Rattus norvegicus; subchronic, duration: 90 days, oral) [mg/kg-day]	NOEC (Tagia sp.) [mg/kg]	LD50 (Colinus virginianus; acute, oral, mortality) [mg/kg-day]	NOEL (Colinus virginianus; reproduction developmental, duration: 23 weeks, reproduction) [mg/kg-day]	LD50 (Apis mellifera; dermal) [µg/piece]	LD50 (Apis mellifera; oral, unspecified) [µg/piece]	NOAEL (Oryctolagus sp.; reproduction developmental, mortality) [mg/kg-day]	NOEC (Folsomia candida) [mg/kg]	NOEL (Anas platyrhynchos) [mg/kg-day]	NOEC (Cyprinodon variegatus) [mg/L]	LR50 (Typhlodromus pyri) [g/ha]
COC(=O)c1ccccc1S(=O)(=O)NC(=O)Nc1nc(C)nc(OC)n1 [Metsulfuron-methyl]	22.4	25														
COC(=O)c1ccccc1S(=O)(=O)NC(=O)N(C)c1nc(C)nc(OC)n1 [Tribenuron-methyl]	1		738 (≈ 1870 µM)	> 5000	2	7	3.2	> 2250	21	> 98.4	> 9.1	20	30.8	21	11.9	> 29.6
